Source: publication doi:10.64898/2026.08.16.745104v1, “C. elegans Dicer stacks with the RIG-I-like receptor DRH-1 to cleave dsRNA” (biorxiv, 2026)

What was measured:
[1] = molecular target: T1, DRH-1 in the antiviral complex (AVC; DCR-1•DRH-1•RDE-4) (Caenorhabditis elegans, UniProt G5EDI8); assay: cryo-EM structure, […] Å; conditions: ATP-binding pockets of both DRH-1 helicases (DRH-1 and DRH-1*); sample incubated with 5 mM ATP and 3'ovr 106-dsRNA, pH 7.5, 20 °C
T1 construct: three proteins co-expressed in Sf9 cells (baculovirus), StrepTrap and Superose 6 purified; two stacked DRH-1 helicases (DRH-1 and DRH-1*, the latter only helicase and CTD resolved); with Endoribonuclease dcr-1

[2] = molecular target: T2, DCR-1 in the antiviral complex (AVC; DCR-1•DRH-1•RDE-4) (Caenorhabditis elegans, UniProt P34529); assay: cryo-EM structure, […] Å; format: binding; conditions: helicase nucleotide pocket between Hel1 and Hel2; Mg2+; sample incubated with 5 mM ATP and 3'ovr 106-dsRNA, pH 7.5, 20 °C
T2 construct: three proteins co-expressed in Sf9 cells (baculovirus), StrepTrap and Superose 6 purified; ADP in DCR-1 helicase domain (Hel1/Hel2); with Dicer Related Helicase
T2 sequence (P34529 whole entry, the tested form may be a part): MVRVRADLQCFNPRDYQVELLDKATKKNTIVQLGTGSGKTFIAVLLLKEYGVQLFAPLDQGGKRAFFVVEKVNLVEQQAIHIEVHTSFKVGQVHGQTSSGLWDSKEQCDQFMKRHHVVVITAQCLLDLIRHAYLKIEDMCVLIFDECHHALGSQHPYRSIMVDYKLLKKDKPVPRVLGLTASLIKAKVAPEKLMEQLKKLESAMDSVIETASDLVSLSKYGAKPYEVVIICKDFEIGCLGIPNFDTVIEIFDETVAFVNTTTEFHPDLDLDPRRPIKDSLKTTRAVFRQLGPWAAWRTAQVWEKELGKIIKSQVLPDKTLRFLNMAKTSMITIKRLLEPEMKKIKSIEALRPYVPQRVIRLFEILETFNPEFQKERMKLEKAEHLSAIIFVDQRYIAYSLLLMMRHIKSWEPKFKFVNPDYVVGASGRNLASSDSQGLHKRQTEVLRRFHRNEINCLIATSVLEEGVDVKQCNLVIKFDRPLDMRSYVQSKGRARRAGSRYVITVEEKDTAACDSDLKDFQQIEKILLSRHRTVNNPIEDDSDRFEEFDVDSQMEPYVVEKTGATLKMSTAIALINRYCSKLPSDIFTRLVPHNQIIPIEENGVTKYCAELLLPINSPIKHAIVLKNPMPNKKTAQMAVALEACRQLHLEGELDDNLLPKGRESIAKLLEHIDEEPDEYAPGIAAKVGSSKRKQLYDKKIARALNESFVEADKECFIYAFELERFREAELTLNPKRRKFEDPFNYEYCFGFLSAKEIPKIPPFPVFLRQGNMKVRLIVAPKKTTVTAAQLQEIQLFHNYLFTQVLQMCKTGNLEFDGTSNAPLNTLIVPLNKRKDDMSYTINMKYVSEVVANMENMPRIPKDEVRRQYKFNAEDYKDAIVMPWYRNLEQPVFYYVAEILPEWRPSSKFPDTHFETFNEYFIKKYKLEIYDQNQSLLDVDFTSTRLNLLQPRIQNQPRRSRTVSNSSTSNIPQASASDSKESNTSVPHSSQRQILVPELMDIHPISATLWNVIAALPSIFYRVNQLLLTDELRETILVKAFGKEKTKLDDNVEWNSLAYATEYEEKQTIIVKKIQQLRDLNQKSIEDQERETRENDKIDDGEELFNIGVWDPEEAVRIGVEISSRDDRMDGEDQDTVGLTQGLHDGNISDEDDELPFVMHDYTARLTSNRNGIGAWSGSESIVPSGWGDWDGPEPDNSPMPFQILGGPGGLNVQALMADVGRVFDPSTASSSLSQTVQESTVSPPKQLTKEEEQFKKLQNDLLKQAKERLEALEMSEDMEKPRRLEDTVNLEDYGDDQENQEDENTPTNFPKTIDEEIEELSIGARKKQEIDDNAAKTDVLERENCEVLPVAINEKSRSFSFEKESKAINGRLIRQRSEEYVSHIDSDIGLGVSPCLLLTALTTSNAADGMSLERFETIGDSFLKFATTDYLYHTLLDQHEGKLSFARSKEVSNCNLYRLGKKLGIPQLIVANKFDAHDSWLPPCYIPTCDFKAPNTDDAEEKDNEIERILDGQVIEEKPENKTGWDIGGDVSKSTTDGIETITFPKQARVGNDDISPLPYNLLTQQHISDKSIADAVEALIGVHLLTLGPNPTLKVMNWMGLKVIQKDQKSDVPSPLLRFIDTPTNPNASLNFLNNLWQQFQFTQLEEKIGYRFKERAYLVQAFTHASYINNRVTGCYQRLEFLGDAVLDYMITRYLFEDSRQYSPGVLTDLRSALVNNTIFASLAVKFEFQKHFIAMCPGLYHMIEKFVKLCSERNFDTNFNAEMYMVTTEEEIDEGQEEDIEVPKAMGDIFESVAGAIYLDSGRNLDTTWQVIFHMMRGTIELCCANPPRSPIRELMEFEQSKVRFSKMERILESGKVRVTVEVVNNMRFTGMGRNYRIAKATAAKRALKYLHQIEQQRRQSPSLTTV
T2 sequence (G5EDI8 1-1037 partner): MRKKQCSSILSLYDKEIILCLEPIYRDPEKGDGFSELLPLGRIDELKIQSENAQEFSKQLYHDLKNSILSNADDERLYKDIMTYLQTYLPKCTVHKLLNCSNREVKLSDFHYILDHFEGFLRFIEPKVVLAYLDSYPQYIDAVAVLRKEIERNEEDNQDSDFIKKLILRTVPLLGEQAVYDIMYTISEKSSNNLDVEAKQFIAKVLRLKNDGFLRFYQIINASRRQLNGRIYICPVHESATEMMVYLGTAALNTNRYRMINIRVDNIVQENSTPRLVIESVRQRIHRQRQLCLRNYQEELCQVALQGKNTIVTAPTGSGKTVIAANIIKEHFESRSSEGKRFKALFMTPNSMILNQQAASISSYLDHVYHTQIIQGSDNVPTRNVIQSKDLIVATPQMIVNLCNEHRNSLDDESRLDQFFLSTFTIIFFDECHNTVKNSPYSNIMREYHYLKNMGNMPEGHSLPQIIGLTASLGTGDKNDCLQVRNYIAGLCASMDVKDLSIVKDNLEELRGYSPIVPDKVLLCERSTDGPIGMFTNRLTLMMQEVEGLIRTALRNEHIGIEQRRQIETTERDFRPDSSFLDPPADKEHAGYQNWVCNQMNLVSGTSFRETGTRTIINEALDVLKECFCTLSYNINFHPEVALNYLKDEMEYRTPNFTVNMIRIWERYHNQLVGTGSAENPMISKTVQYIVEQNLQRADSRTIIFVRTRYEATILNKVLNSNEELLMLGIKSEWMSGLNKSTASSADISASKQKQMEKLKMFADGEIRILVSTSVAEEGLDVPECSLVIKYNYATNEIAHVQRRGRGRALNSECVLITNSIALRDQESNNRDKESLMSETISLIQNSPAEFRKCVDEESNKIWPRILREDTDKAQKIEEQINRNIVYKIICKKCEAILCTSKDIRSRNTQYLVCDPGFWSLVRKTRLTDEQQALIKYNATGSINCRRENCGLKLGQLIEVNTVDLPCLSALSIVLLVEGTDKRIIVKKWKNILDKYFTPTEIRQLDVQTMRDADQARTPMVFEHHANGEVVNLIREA
T2 sequence (G5EBF5 1-385 partner): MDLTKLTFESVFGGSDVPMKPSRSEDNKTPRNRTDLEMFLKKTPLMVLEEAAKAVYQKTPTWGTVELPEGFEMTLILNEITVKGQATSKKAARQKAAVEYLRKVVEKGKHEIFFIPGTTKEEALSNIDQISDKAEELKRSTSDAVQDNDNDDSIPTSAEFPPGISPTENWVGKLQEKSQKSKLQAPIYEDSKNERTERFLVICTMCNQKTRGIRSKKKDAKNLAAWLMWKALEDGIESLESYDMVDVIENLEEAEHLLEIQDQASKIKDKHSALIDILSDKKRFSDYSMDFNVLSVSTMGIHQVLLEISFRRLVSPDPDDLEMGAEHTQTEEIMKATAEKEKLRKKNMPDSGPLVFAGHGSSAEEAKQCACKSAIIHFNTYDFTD

T1 sequence (G5EDI8 1-1037): as the sequence (G5EDI8 1-1037 partner) above
T1 sequence (P34529 whole entry partner): as the sequence (P34529 whole entry, the tested form may be a part) above
T1 sequence (G5EBF5 1-385 partner): as the sequence (G5EBF5 1-385 partner) above

Nc1ncnc2c1ncn2[C@@H]1O[C@H](COP(=O)(O)OP(=O)(O)O)[C@@H](O)[C@H]1O [ADP]
cryo-EM structure, 3.0 Å [1]: ADP was also present in the ATP-binding pockets of both DRH-1 helicases | cryo-EM structure, 3.0 Å [2]: we modeled ADP within the conserved nucleotide-binding pocket of the DCR-1 helicase
